The target of data set [1] is T1, CYP2B6 (Homo sapiens, UniProt P20813). Kind of data set: biochemical.
Data set [2] addresses T1, CYP2B6. To be noted: both, 10 min, pH 7.4.
The conditions of data set [3]: cited from earlier work.
The test system of the next data set is HT29SN-38-RES cells. Kind of data set: MDR reversal analysis with MTT assay, HT29SN-38-RES. It is filed as cell-based, human. As to conditions: 72 hours, oxaliplatin is not a substrate for BCRP. The procedure:
(§1) Control conditions consisted of full growth medium. All treatments were performed in triplicate.
Background: Tetrazolium dyes change colour on reduction, which living cells bring about.

Another data set deals with MDCK-II-WT cells. The experiment in a line: MDR reversal analysis with MTT assay, MDCK-II-WT. The data set is classed as cell-based, canine. As to conditions: Canis lupus familiaris, 72 h drug exposure, read-out: IC50 Value for Each Cell Line: MDCK-II-WT.
The next data set addresses CYP2C8 (Homo sapiens, UniProt P10632). As to conditions: both, 10 min, pH 7.4.
The target of another data set is CYP2C19 (Homo sapiens, UniProt P33261). Kind of data set: CYP inhibition, CYP2C19. As to conditions: HLM, omeprazole substrate.
For data set [4], the target named is T2, BCRP (Homo sapiens, UniProt Q9UNQ0).
T2 sequence (Q9UNQ0 1-655): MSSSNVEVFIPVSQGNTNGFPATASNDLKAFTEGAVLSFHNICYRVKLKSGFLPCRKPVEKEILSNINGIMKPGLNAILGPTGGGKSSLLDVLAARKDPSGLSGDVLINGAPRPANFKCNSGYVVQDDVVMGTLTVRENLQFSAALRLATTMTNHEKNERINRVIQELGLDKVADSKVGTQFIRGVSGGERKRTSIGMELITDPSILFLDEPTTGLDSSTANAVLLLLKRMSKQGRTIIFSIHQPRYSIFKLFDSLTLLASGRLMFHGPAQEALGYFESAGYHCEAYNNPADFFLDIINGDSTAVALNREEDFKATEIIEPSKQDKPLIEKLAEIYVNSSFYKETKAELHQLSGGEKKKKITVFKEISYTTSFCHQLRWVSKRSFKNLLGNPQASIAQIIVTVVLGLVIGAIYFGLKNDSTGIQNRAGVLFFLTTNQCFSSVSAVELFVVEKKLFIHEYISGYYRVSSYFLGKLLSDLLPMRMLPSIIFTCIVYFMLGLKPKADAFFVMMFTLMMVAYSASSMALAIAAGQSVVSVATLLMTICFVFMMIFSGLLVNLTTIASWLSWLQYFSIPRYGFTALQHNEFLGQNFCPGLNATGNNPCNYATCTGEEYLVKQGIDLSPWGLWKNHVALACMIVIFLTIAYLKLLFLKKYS
The experiment in a line: Cellular dye efflux assay (Hoechst 33342) in HT29SN-38-RES cells. The arrangement: endogenous in cells; host or cells: HT29 SN-38-RES (drug-selected HT29). The data set is classed as cell-based. To be noted: fluorescence microscopy and imaging cytometry.
Protocol: HT29 cells were seeded either into a 96-well Nunclon plate (Thermo Fisher Scientific, Roskilde, Denmark) at a density of 6000 cells/well (for Celigo Imaging Cytometry) or into a Nunc 6-well plate at a density of 150,000 cells/well (for fluorescence microscopy). […] Then, the cells were washed with ice-cold PBS to remove excess Hoechst dye. Drugs were added again and the cells were incubated for 1h at 37 °C. The plates were analyzed with either fluorescence microscopy (6-well plates) or imaging cytometry (96-well plates). For the Celigo Imaging Cytometry (Lawrence, MA, USA), the application “Target 1 + 2 (merge)” was used, and the mean fluorescence intensities were measured and data presented as percentage of parental control.

For a further data set, the target named is T3, OAT3 (Homo sapiens, UniProt Q8TCC7).
T3 construct: expressed in transfected cells; host or cells: CHO
Kind of data set: Fluorometric transporter inhibition, OAT3-CHO. The data set is classed as in vitro ADME. As to conditions: CF substrate. The procedure:
(§2) Cells were seeded in a 96-well plate (20,000 cells/well) and used on days 2 or 3 post-seeding. […] Subsequently, substrate was added to the plate followed by 20 min incubation at 37 °C. The plate was then washed with cold assay buffer followed by fluorescence reading on a plate reader. The tested transporters, cell lines, substrates, and reference inhibitors are shown in the Supplementary Materials (Tables S1 and S2).
(§3) 110 Table S1. […]
OAT3 (h) inhibition (OAT3-CHO, CF substrate) […]
(§4) The IC50 values are shown for the analysed transporters with […]

In the next data set the target is CYP2D6 (Homo sapiens, UniProt P10635). To be noted: both, pH 7.4.
The next data set deals with T4, OATP1B3 (Homo sapiens, UniProt Q9NPD5).
T4 construct: expressed in transfected cells; host or cells: CHO
Kind of data set: Fluorometric transporter inhibition, OATP1B3-CHO. It is filed as in vitro ADME. As to conditions: FMTX substrate. The procedure: as §2, §3
OATP1B3 OATP1B3-CHO Fluorescein methotrexate Rifampicin […]
OATP1B3 (h) inhibition (OATP1B3 -CHO, FMTX substrate) […]
as §4

The target in a further data set is T5, OATP1B1 (Homo sapiens, UniProt Q9Y6L6).
T5 construct: expressed in transfected cells; host or cells: CHO
The experiment in a line: Fluorometric transporter inhibition, OATP1B1-CHO. The data set is classed as in vitro ADME. As to conditions: FMTX substrate. The procedure:
as §2
110 Table S1. In vitro DMPK analysis of transporter inhibition
OATP1B1 OATP1B1-CHO Fluorescein methotrexate Rifampicin […]
OATP1B1 (h) inhibition (OATP1B1-CHO, FMTX substrate) […]
as §4

The subject of a further data set is HT29PAR cells. Kind of data set: MDR reversal analysis with MTT assay, HT29PAR. It is filed as cell-based. As to conditions: Homo sapiens, 72 h drug exposure, read-out: IC50 Value for Each Cell Line: HT29PAR. The procedure: as §1
Data set [5] deals with T2, BCRP. The experiment in a line: […] ATPase assay with recombinant BCRP membranes. As to conditions: sulfasalazine alone; basal activity 50.68. It is filed as biochemical. The arrangement: purchased Solvo Biotechnology (via Sigma-Aldrich/Merck) SB-BCRP-M. The procedure: After incubation with test compounds, MgATP was added to each well and incubated at 37 °C for 10 min. The ATPase reaction was stopped by the addition of 1x Developer solution at room temperature (RT). Two minutes after, 100 µL Blocker solution was added and the plate was incubated for 30 min at 37 °C for 30 min. The optical densities were measured at 620 nm using a PowerWave X Microplate spectrophotometer (BioTek, Bad Friedrichshall, Germany).

A short description of data set [6]: Apparent permeability across Caco-2 cell monolayers. As to conditions: human, Caco-2, pH 7.4. (In general: Caco-2 monolayers are a common model of the intestinal barrier.)
Protocol: Bidirectional transport experiments with [3H]-estrone-3-sulfate were completed with monolayers of Caco-2 cells from the American Type Culture Collection (ATCC) cultured on Transwell permeable supports for 27 days in Dulbecco’s modified Eagle’s medium, supplemented with 10% FBS, 10 μL·mL^−1 nonessential amino acids (×100), and 100 U·mL^−1 to 100 μg·mL^−1 penicillin-streptomycin solution. The transepithelial electrical resistance was measured across Caco-2 cell monolayers with an Endohm 12-cup electrode chamber (World Precision Instruments Inc., Sarasota, FL, USA) connected volt meter (EVOM, World Precision Instruments Inc., Sarasota, FL, USA) to ensure that cell monolayers were electrically tight before initiating transport experiments. Cell monolayers were allowed to equilibrate to room temperature before the resistance was measured. Prior to initiating the transport experiments, the cell monolayers were pre-incubated in transport buffer (HBSS supplemented with 10 mM HEPES, pH 7.4, and 0.05 % BSA) for 30 min. […] For transport experiments in the apical to basolateral direction, samples of 100 µL were taken from the basoteral compartment (volume 1 mL) at t = 15, 30, 45, 60, 90, and 120 min. From transport experiments in the basolateral to apical direction, samples of 50 µL were taken from the apical compartment (volume 0.5 mL) at the same time points. The withdrawn sample volume from the acceptor compartments were immediately replaced with an equal volume of blank transport buffer. The withdrawn samples were pipetted into scintillation vials and mixed with 2 mL of scintillation fluid. […] Transport of mannitol was measured to validate the barrier integrity of the Caco-2 cell monolayers.
Data treatment: The accumulated amount of compound (Qt, nmol) appearing in the donor compartment was plotted against time. The steady-state flux of compound was calculated as the slope of the linear part of this plot, thus correcting for lag-time effects. The apparent permeability was subsequently calculated with Equation (1):(1) P=J/C_0=Q_t/(C0*A_t) where J represents the steady state flux (nmol·cm^−2·min^−1), C0 represents the initial concentration in the donor compartment, At denotes the area of the permeable support (1.12 cm^2), and Qt is the accumulated amount of compound (nmol) in the receiver compartment at time t (min).
The ratio between apparent permeability in the basolateral to apical direction and the apparent permeability in the opposite direction (efflux ratio = PB−A/PA−B ) was used as a measure of active efflux transport.

T4 sequence (Q9NPD5 whole entry): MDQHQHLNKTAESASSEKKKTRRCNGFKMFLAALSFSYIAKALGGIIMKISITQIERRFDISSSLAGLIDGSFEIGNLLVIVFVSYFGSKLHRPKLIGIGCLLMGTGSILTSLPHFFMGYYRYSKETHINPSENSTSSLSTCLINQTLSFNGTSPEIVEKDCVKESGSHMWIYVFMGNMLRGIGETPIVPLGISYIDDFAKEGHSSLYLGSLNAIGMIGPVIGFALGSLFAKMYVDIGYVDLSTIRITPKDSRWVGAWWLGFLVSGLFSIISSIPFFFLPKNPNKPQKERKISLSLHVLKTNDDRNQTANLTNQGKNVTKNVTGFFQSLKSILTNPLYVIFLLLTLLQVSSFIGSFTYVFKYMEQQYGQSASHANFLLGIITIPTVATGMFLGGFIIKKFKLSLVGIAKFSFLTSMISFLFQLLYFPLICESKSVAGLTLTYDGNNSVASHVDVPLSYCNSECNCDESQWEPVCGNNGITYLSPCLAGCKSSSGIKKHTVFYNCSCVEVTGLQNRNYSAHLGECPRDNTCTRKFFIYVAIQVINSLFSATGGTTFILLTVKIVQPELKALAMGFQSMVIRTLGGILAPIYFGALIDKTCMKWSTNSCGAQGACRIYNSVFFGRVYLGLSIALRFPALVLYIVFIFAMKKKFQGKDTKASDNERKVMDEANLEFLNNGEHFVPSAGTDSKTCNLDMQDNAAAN
T1 sequence (P20813 whole entry): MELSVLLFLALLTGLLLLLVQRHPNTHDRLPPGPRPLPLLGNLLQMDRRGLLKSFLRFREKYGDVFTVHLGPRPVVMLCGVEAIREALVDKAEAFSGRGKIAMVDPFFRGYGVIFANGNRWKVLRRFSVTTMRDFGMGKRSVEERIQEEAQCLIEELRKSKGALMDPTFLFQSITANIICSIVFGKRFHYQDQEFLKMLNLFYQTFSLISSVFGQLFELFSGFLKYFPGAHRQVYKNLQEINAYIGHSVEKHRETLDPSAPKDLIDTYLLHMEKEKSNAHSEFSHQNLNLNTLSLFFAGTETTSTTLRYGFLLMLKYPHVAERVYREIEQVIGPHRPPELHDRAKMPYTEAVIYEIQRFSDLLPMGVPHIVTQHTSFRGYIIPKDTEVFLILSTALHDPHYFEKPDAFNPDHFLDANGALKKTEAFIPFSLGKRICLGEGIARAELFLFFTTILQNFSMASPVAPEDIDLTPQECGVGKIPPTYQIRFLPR
T5 sequence (Q9Y6L6 whole entry): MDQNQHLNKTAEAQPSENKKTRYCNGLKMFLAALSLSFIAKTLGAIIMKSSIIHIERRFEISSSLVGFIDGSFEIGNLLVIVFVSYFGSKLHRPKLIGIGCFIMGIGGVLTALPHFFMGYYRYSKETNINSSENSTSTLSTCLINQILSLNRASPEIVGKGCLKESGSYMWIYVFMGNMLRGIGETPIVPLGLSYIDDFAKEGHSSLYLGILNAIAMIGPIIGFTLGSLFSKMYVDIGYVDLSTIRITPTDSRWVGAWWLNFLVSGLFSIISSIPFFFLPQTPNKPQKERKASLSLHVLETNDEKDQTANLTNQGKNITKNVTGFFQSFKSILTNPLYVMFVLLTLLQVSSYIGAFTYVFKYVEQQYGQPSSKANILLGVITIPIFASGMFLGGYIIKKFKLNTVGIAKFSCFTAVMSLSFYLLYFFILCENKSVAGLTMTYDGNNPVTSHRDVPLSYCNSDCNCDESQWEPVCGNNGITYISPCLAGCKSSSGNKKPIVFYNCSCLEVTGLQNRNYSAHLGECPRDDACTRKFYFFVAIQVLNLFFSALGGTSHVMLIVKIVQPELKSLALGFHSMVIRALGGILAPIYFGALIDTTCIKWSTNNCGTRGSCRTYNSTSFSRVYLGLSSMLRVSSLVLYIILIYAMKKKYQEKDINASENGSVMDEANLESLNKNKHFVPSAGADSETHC
T3 sequence (Q8TCC7 whole entry): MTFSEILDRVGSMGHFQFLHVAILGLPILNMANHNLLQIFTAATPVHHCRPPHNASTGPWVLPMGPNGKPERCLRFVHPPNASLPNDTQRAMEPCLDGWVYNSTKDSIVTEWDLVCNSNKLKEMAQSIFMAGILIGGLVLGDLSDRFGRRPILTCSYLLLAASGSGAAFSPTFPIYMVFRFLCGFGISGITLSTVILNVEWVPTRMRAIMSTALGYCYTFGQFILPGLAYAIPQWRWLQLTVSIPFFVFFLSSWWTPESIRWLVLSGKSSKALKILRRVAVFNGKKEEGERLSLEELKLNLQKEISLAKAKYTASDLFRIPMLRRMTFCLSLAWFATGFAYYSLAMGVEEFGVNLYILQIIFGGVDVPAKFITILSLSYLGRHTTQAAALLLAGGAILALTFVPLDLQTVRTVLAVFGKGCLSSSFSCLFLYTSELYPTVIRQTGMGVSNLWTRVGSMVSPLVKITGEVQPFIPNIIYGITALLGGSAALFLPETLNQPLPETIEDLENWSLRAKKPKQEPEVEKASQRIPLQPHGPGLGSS
CYP2D6, sequence (P10635 whole entry): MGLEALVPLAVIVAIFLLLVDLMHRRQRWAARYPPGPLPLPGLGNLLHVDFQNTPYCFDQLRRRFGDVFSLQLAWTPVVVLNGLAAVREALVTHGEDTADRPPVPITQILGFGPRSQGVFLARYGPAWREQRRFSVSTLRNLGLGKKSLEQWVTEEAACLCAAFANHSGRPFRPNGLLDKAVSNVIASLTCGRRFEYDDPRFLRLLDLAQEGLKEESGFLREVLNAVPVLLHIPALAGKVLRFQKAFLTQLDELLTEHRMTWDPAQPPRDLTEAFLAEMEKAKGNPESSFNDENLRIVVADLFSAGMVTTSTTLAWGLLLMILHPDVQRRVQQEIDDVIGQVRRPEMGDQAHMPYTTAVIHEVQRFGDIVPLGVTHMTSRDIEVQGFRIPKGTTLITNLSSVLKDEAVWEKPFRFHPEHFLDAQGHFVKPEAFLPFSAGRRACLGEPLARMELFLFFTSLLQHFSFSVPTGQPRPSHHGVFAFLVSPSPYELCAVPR
CYP2C19, sequence (P33261 whole entry): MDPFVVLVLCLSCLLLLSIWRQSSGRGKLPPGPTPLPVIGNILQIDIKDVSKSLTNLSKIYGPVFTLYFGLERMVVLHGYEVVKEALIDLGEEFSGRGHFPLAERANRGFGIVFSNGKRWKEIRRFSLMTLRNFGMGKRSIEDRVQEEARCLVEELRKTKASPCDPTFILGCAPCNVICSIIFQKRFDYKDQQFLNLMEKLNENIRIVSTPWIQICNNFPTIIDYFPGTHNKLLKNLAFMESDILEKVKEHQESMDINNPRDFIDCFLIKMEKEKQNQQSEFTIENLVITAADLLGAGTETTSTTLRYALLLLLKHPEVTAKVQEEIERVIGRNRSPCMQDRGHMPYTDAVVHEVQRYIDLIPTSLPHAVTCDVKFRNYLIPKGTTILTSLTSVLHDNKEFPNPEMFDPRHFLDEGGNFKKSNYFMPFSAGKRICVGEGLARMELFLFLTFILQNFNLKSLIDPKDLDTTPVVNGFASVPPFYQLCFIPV
CYP2C8, sequence (P10632 whole entry): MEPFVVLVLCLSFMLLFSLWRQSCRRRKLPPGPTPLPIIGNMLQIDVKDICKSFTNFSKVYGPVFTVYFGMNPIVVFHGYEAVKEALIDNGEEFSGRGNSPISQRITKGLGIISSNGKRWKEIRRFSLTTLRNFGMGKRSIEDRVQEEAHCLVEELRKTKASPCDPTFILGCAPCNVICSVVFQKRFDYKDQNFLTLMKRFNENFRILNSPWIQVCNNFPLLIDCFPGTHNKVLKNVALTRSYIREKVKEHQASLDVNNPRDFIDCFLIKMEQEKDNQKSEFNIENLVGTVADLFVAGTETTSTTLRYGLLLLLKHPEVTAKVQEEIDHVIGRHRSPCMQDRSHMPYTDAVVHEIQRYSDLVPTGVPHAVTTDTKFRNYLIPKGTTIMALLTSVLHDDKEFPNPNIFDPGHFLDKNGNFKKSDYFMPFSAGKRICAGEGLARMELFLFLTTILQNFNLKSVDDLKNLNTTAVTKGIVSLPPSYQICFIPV
Protocol for MDCK-II-WT cells: Cells were seeded in Nunc 96-well plates (2000 or 8000 cells/well for the MDCK-II and HT29 cells, respectively). Following cell attachment (12–24 h), drugs were added to a total volume of 200 µL. Control conditions consisted of full growth medium. All treatments were performed in triplicate. Following 72 h of drug exposure, MTT reagent was added for either 1 h (MDCK-II) or 3 h (HT29). For cell lysis and solubilization of the formazan crystals, DMSO was added to the MDCK-II cells, whereas acidified (0.02 M HCl) sodium dodecyl sulphate was added to the HT29 cells. […] Background optical density values were subtracted, and the average optical densities were calculated. Cell viability was calculated as percentage of untreated control cells. The mean IC50 values were determined using GraphPad Prism (version 6.0, San Diego, CA, USA).

The compound `COC(=O)[C@H](c1ccccc1Cl)N1CCc2sccc2C1` [Clopidogrel] registered an IC50 on CYP2B6 [1] of 740 nM. The compound further yielded a nH on CYP2B6 [2] of 1.3.

For `COc1ccc2c3c([nH]c2c1)[C@H](CC(C)C)N1C(=O)[C@H](CCC(=O)OC(C)(C)C)NC(=O)[C@@H]1C3` [Ko143, reference compound], the stability in plasma entry in data set [3] is given as “not stable in plasma”. For the same compound, the “combinatorial effect with oxaliplatin on cell viability” value with HT29SN-38-RES cells is listed as “no added effects”.

`O=C1c2c(O)ccc(O)c2C(=O)c2c(NCCNCCO)ccc(NCCNCCO)c21` [Mitoxantrone]: in the data set with MDCK-II-WT cells, the IC50 was 157 ± 23 nM.

With `CC(C)(O)c1ccccc1CC[C@@H](SCC1(CC(=O)O)CC1)c1cccc(/C=C/c2ccc3ccc(Cl)cc3n2)c1` [Montelukast], the nH on CYP2C8 stood at 0.8.

Turning to `CCN(CC)CC#CCOC(=O)C(O)(c1ccccc1)C1CCCCC1` (stereo not drawn) [Oxybutynin], the nH on CYP2C19 came to 1.0.

With `C/C=C/C[C@@H](C)C(=O)[C@H]1C(=O)N[C@@H](C(C)C)C(=O)N(C)CC(=O)N(C)[C@@H](CC(C)C)C(=O)N[C@@H](C(C)C)C(=O)N(C)[C@@H](CC(C)C)C(=O)N[C@@H](C)C(=O)N[C@H](C)C(=O)N(C)[C@@H](CC(C)C)C(=O)N(C)[C@@H](CC(C)C)C(=O)N(C)[C@@H](C(C)C)C(=O)N1C` [PSC833, reference compound], the “Hoechst accumulation in resistant cells” value on BCRP [4] is given as “did not have any effects”.

With `CCCN(CCC)S(=O)(=O)c1ccc(C(=O)O)cc1` [Probenecid], on OAT3, the nH is reported as 0.6.

`C=C[C@H]1C[N@@]2CC[C@H]1C[C@@H]2[C@@H](O)c1ccnc2ccc(OC)cc12` [Quinidine] showed a nH on CYP2D6 of 1.1.

For `CO[C@H]1/C=C/O[C@@]2(C)Oc3c(C)c(O)c4c(O)c(c(/C=N/N5CCN(C)CC5)c(O)c4c3C2=O)NC(=O)/C(C)=C\C=C\[C@H](C)[C@H](O)[C@@H](C)[C@@H](O)[C@@H](C)[C@H](OC(C)=O)[C@@H]1C` [Rifampicin], the nH was 0.4 at OATP1B3 and 0.6 at OATP1B1. Also, the IC50 at OATP1B3 (NC: not calculable) was 5400 nM; at OATP1B1 (NC: not calculable), 2200 nM.

In the case of `CCc1c2c(nc3ccc(O)cc13)-c1cc3c(c(=O)n1C2)COC(=O)[C@]3(O)CC` [SN-38, 7-Ethyl-10-hydroxycamptothecin], the IC50 in the data set on HT29PAR cells was 16 ± 10 nM.

For the compound `O=C(O)c1cc(/N=N/c2ccc(S(=O)(=O)Nc3ccccn3)cc2)ccc1O` [Sulfasalazine, reference compound], at BCRP [5], the “maximal ATPase activity” value is listed as 104.8 nmol Pi/mg protein/min.

As to `CC[C@@]1(O)C(=O)OCc2c1cc1n(c2=O)Cc2cc3c(CN(C)C)c(O)ccc3nc2-1` [Topotecan], the IC50 with HT29PAR cells was 8 ± 3 nM.

As to `C[C@]12CC[C@@H]3c4ccc(OS(=O)(=O)O)cc4CC[C@H]3[C@@H]1CCC2=O` [[^3H]-estrone-3-sulfate], in the data set with Caco-2 cell monolayers, the “apparent permeability in the efflux direction (basolateral to apical)” value is 2.7 ± 0.2 × 10^−5 cm/second, the “apparent permeability in the opposite direction (apical to basolateral)” value is recorded as 2.2 ± 0.01 × 10^−6 cm/second and the “efflux ratio (PB-A/PA-B)” value is reported as 12.2.

Consider `OC[C@@H](O)[C@@H](O)[C@H](O)[C@H](O)CO` [mannitol], for which, in data set [6], the apparent permeability (Papp) at 120 min, 0.8 µCi/mL came to 0.21 ×10⁻⁶ cm/s.

One may read the IC50 as the concentration that inhibits the measured activity by half. What is called Papp is a coefficient for how fast a substance crosses the barrier.

The values above are taken from paper PMC7140522, “The Pyrazolo[3,4-d]pyrimidine Derivative, SCO-201, Reverses Multidrug Resistance Mediated by ABCG2/BCRP” (Cells, 2020).
